Measurements taken from patent US20260265265A1, “NOVEL BENZIMIDAZOLONE DERIVATIVE COMPOUND AS AUTOTAXIN INHIBITOR” (LG CHEM, LTD., priority 2023, published 2026).

Molecular target: T1, Recombinant Human ENPP-2/Autotaxin (Homo sapiens, UniProt Q13822)
T1 construct: purchased R&D systems 5255-EN
Assay: LysoPLD activity measurement (autotaxin enzyme inhibition, choline release, TOOS reagent)
Assay type: biochemical
Conditions: LysoPLD inhibitory activity; substrate 14:0 LysoPC; absorbance at 555 nm
Method: Such a measurement method is a method of measuring the amount of choline, which is a reaction product in an autotaxin enzyme reaction, using a TOOS reagent. Depending on the activity of the autotaxin inhibitor, the amount of choline produced as a reaction product varies, which affects the final absorbance.
After 30 min, 14:0 LysoPC of the substrate diluted to a concentration of 300 μM with the enzyme reaction buffer solution was dispensed into each well by 50 μL and allowed to stand at 37° C. for 90 minutes. At this time, negative control wells were dispensed with 1% DMSO, substrate, and autotaxin instead of the compound, and positive control wells were dispensed with 1% DMSO and substrate.

Row | Compound | IC50 [nM]
1 | CN1CCN(C(=O)c2ccc(-n3c(=O)n(Cc4cccc(C(=O)O)c4)c4ccc(Cl)cc43)cc2)CC1 [Example 60, 3-((5-chloro-3-(4-(4-methylpiperazine-1-carbonyl)phenyl)-2-oxo-2,3-dihydro-1H-benzo[d]imidazol-1-yl)methyl)benzoic acid] | < 10
2 | O=C(O)c1cccc(Cn2c(=O)n(-c3ccc(C(=O)N4CCC(O)CC4)cc3)c3cc(Cl)ccc32)c1 [Example 61, 3-((5-chloro-3-(4-(4-hydroxypiperidin-1-carbonyl)phenyl)-2-oxo-2,3-dihydro-1H-benzo[d]imidazol-1-yl)methyl)benzoic acid] | < 10
3 | COC1CCN(C(=O)c2ccc(-n3c(=O)n(Cc4cccc(C(=O)O)c4)c4ccc(Cl)cc43)cc2)CC1 [Example 62, 3-((5-chloro-3-(4-(4-methoxypiperidine-1-carbonyl)phenyl)-2-oxo-2,3-dihydro-1H-benzo[d]imidazol-1-yl)methyl)benzoic acid] | < 10
4 | O=C(O)c1cccc(C2(n3c(=O)n(-c4ccc(C(=O)N5CCCC5)cc4)c4cc(Cl)ccc43)CC2)c1 [Example 63, 3-(1-(5-chloro-2-oxo-3-(4-(pyrrolidine-1-carbonyl)phenyl)-2,3-dihydro-1H-benzo[d]imidazol-1-yl)cyclopropyl)benzoic acid] | < 10
5 | O=C(O)c1cccc(C2(n3c(=O)n(-c4ccc(C(=O)N5CCCCC5)cc4)c4cc(Cl)ccc43)CC2)c1 [Example 64, 3-(1-(5-chloro-2-oxo-3-(4-(piperidin-1-carbonyl)phenyl)-2,3-dihydro-1H-benzo[d]imidazol-1-yl)cyclopropyl)benzoic acid] | < 10
6 | CN(C)c1ccc(-n2c(=O)n(Cc3cc(F)cc(C(=O)O)c3)c3c(F)cc(Cl)cc32)cc1 [Example 65, 3-((5-chloro-3-(4-(dimethylamino)phenyl)-7-fluoro-2-oxo-2,3-dihydro-1H-benzo[d]imidazol-1-yl)methyl)-5-fluorobenzoic acid] | 10 to 100
7 | CN(C)c1ccc(-n2c(=O)n(Cc3cccc(C(=O)O)c3)c3c(F)cc(Cl)cc32)cc1 [Example 66, 3-((5-chloro-3-(4-(dimethylamino)phenyl)-7-fluoro-2-oxo-2,3-dihydro-1H-benzo[d]imidazol-1-yl)methyl)benzoic acid] | 10 to 100
8 | O=C(O)c1cccc(C2(n3c(=O)n(-c4ccc(C(=O)N5CCCC5)cc4)c4cc(Cl)ccc43)CC2)c1F [Example 67, 3-(1-(5-chloro-2-oxo-3-(4-(pyrrolidine-1-carbonyl)phenyl)-2,3-dihydro-1H-benzo[d]imidazol-1-yl)cyclopropyl)-2-fluorobenzoic acid] | < 10
9 | O=C(O)c1cccc(C2(n3c(=O)n(-c4ccc(C(=O)N5CCCCC5)cc4)c4cc(Cl)ccc43)CC2)c1F [Example 68, 3-(1-(5-chloro-2-oxo-3-(4-(piperidine-1-carbonyl)phenyl)-2,3-dihydro-1H-benzo[d]imidazol-1-yl)cyclopropyl)-2-fluorobenzoic acid] | < 10
10 | CN(C)c1ccc(-n2c(=O)n(C3(c4cccc(C(=O)O)c4)CC3)c3ccc(Cl)cc32)cc1 [Example 69, 3-(1-(5-chloro-3-(4-(dimethylamino)phenyl)-2-oxo-2,3-dihydro-1H-benzo[d]imidazol-1-yl)cyclopropyl)benzoic acid] | < 10
11 | CN(C)c1ccc(-n2c(=O)n(C3(c4cccc(C(=O)O)c4F)CC3)c3ccc(Cl)cc32)cc1 [Example 70, 3-(1-(5-chloro-3-(4-(dimethylamino)phenyl)-2-oxo-2,3-dihydro-JH-benzo[d]imidazol-1-yl)cyclopropyl)-2-fluorobenzoic acid] | < 10
12 | CN(C)C(=O)c1ccc(-n2c(=O)n(C3(c4cccc(C(=O)O)c4)CC3)c3ccc(Cl)cc32)cc1 [Example 71, 3-(1-(5-chloro-3-(4-(dimethylcarbamoyl)phenyl)-2-oxo-2,3-dihydro-1H-benzo[d]imidazol-1-yl)cyclopropyl)benzoic acid] | < 10
13 | CN(C)C(=O)c1ccc(-n2c(=O)n(C3(c4cccc(C(=O)O)c4F)CC3)c3ccc(Cl)cc32)cc1 [Example 72, 3-(1-(5-chloro-3-(4-(dimethylcarbamoyl)phenyl)-2-oxo-2,3-dihydro-1H-benzo[d]imidazol-1-yl)cyclopropyl)-2-fluorobenzoic acid] | < 10
14 | CCOc1ccc(-n2c(=O)n(Cc3cccc(C(=O)O)c3)c3ccc(Cl)cc32)cn1 [Example 75, 3-((5-chloro-3-(6-ethoxypyridin-3-yl)-2-oxo-2,3-dihydro-1H-benzo[d]imidazol-1-yl)methyl)benzoic acid] | 100 to 1000
15 | CCCOc1ccc(-n2c(=O)n(Cc3cccc(C(=O)O)c3)c3ccc(Cl)cc32)cn1 [Example 76, 3-((5-chloro-2-oxo-3-(6-propoxypyridin-3-yl)-2,3-dihydro-1H-benzo[d]imidazol-1-yl)methyl)benzoic acid] | 100 to 1000
16 | O=C(O)c1cccc(Cn2c(=O)n(-c3ccc(N4CC(O)C4)nc3)c3cc(Cl)ccc32)c1 [Example 77, 3-((5-chloro-3-(6-(3-hydroxyazetidin-1-yl)pyridin-3-yl)-2-oxo-2,3-dihydro-1H-benzo[d]imidazol-1-yl)methyl)benzoic acid] | 100 to 1000

Row | Compound | IC50 [nM]
17 | O=C(O)c1cccc(Cn2c(=O)n(-c3ccc(N4CCOCC4)nc3)c3cc(Cl)ccc32)c1 [Example 78, 3-((5-chloro-3-(6-morpholinopyridin-3-yl)-2-oxo-2,3-dihydro-1H-benzo[d]imidazol-1-yl)methyl)benzoic acid] | 10 to 100
18 | CN(C)c1ccc(-n2c(=O)n(Cc3cccc(C(=O)O)c3)c3ccc(Cl)cc32)cn1 [Example 79, 3-((5-chloro-3-(6-(dimethylamino)pyridin-3-yl)-2-oxo-2,3-dihydro-1H-benzo[d]imidazol-1-yl)methyl)benzoic acid] | 10 to 100
19 | O=C(O)c1cccc(Cn2c(=O)n(-c3ccc(N4CCC(F)(F)C4)nc3)c3cc(Cl)ccc32)c1 [Example 80, 3-((5-chloro-3-(6-(3,3-difluoropyrrolidin-1-yl)pyridin-3-yl)-2-oxo-2,3-dihydro-1H-benzo[d]imidazol-1-yl)methyl)benzoic acid] | 100 to 1000
20 | CN1CCN(c2ccc(-n3c(=O)n(Cc4cccc(C(=O)O)c4)c4ccc(Cl)cc43)cn2)CC1 [Example 81, 3-((5-chloro-3-(6-(4-methylpiperazin-1-yl)pyridin-3-yl)-2-oxo-2,3-dihydro-1H-benzo[d]imidazol-1-yl)methyl)benzoic acid] | 100 to 1000
21 | O=C(O)c1cccc(Cn2c(=O)n(-c3ccc(N4CCC(F)(F)CC4)nc3)c3cc(Cl)ccc32)c1 [Example 82, 3-((5-chloro-3-(6-(4,4-difluoropiperidin-1-yl)pyridin-3-yl)-2-oxo-2,3-dihydro-1H-benzo[d]imidazol-1-yl)methyl)benzoic acid] | 10 to 100
22 | O=C(O)c1cccc(Cn2c(=O)n(-c3cnc(N4CCOCC4)nc3)c3cc(Cl)ccc32)c1 [Example 83, 3-((5-chloro-3-(2-morpholinopyrimidin-5-yl)-2-oxo-2,3-dihydro-1H-benzo[d]imidazol-1-yl)methyl)benzoic acid] | 100 to 1000
23 | CCCn1cc(-n2c(=O)n(Cc3cccc(C(=O)O)c3)c3ccc(Cl)cc32)cn1 [Example 84, 3-((5-chloro-2-oxo-3-(1-propyl-1H-pyrazol-4-yl)-2,3-dihydro-1H-benzo[d]imidazol-1-yl)methyl)benzoic acid] | 100 to 1000
24 | O=C(O)c1cccc(Cn2c(=O)n(-c3cnn(C4CCOCC4)c3)c3cc(Cl)ccc32)c1 [Example 86, 3-((5-chloro-2-oxo-3-(1-(tetrahydro-2H-pyran-4-yl)-1H-pyrazol-4-yl)-2,3-dihydro-1H-benzo[d]imidazol-1-yl)methyl)benzoic acid] | 100 to 1000
25 | CCCn1cc(-n2c(=O)n(Cc3cccc(C(=O)O)c3)c3ccc(Cl)c(F)c32)cn1 [Example 88, 3-((5-chloro-4-fluoro-2-oxo-3-(1-propyl-1H-pyrazol-4-yl)-2,3-dihydro-1H-benzo[d]imidazol-1-yl)methyl)benzoic acid] | 10 to 100
26 | CC(C)n1cc(-n2c(=O)n(Cc3cccc(C(=O)O)c3)c3ccc(Cl)cc32)cn1 [Example 89, 3-((5-chloro-3-(1-isopropyl-1H-pyrazol-4-yl)-2-oxo-2,3-dihydro-1H-benzo[d]imidazol-1-yl)methyl)benzoic acid] | 100 to 1000
27 | O=C(O)c1cccc(Cn2c(=O)n(-c3cnn(CC4CC4)c3)c3cc(Cl)ccc32)c1 [Example 90, 3-((5-chloro-3-(1-cyclopropylmethyl-1H-pyrazol-4-yl)-2-oxo-2,3-dihydro-1H-benzo[d]imidazol-1-yl)methyl)benzoic acid] | 100 to 1000
28 | O=C(O)c1cccc(Cn2c(=O)n(-c3cnn(CC4CCC4)c3)c3cc(Cl)ccc32)c1 [Example 91, 3-((5-chloro-3-(1-cyclobutylmethyl-1H-pyrazol-4-yl)-2-oxo-2,3-dihydro-1H-benzo[d]imidazol-1-yl)methyl)benzoic acid] | 100 to 1000
29 | CCCn1cc(-n2c(=O)n(Cc3cccc(C(=O)O)c3F)c3ccc(Cl)c(F)c32)cn1 [Example 92, 3-((5-chloro-4-fluoro-2-oxo-3-(1-propyl-1H-pyrazol-4-yl)-2,3-dihydro-1H-benzo[d]imidazol-1-yl)methyl)-2-fluorobenzoic acid] | 10 to 100
30 | O=C(O)c1cccc(C2(n3c(=O)n(-c4ccc(C(=O)N5CC6(CCOCC6)C5)cc4)c4cc(Cl)ccc43)CC2)c1 [Example 93, 3-(1-(3-(4-(7-oxa-2-azaspiro[3.5]nonane-2-carbonyl)phenyl)-5-chloro-2-oxo-2,3-dihydro-1H-benzo[d]imidazol-1-yl)cyclopropyl)benzoic acid] | < 10
31 | O=C(O)c1cccc(Cn2c(=O)n(-c3ccc(N4CCC(F)(F)CC4)cc3)c3cc(Cl)ccc32)c1 [Example 94, 3-((5-chloro-3-(4-(4,4-difluoropiperidin-1-yl)phenyl)-2-oxo-2,3-dihydro-1H-benzo[d]imidazol-1-yl)methyl)benzoic acid] | 10 to 100
